Like-named read-outs stand apart in the source and are kept apart here.
What was measured:
[1] = system: hiPSC-derived neurons co-cultured with human primary astrocytes in 2D; experiment: Ca2+ transient oscillation assay (FDSS), 2D co-culture; type: cell-based; conditions: Homo sapiens, 1 h, 60 min
Summary of the method: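 Cultures were 10,000 CW50065 hiPSC excitatory neurons plus 2500 primary human astrocytes per well. Recordings used Cal-520 dye in HBSS/HEPES/glucose at 37 °C, with a 470/540 nm read at 2 Hz. Oscillations were stabilized with 0.04% DMSO, read for 20 min, then read again 60 min after compound addition (final DMSO 0.1%).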

[2] = system: hiPSC-derived neurons co-cultured with human primary astrocytes in 3D; experiment: Ca2+ transient oscillation assay (FDSS), 3D spheroids; type: cell-based; conditions: 60 min
Summary of the method: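 Fura-2 fluorescence was read twice for 20 min each: a baseline 10 min after 0.04% DMSO, and again 60 min after compound addition at nominal final concentration. The 3D co-cultures (1:1 hiPSC neurons from a donor and human astrocytes, 8000 each) matured 5 weeks in BrainPhys medium after a 1-week differentiation.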

[3] = system: kainic-acid-induced seizures; conditions: cited from earlier work
[4] = read-out: Area under the curve - 2D Mean
[5] = read-out: Peak amplitude - 2D Mean
[6] = read-out: Peak-to-peak interval - 2D Mean

CC(NC(C)(C)C)C(=O)c1cccc(Cl)c1 (centres unmarked) [Bupropion]
activation at 0.37 µM [1, 4]: 14.5%
activation at 0.37 µM ([1]; read-out: Peak Number—2D Mean): 12.7%
activation at 0.37 µM [1, 5]: 2.7%
activation at 0.37 µM ([1]; read-out: Peak width - 2D Mean): 12.8%
activation at 0.37 µM [1, 6]: -5.5%
activation at 1.11 µM [1, 4]: 26.6%
activation at 1.11 µM ([1]; read-out: Peak Number—2D Mean): 6.6%
activation at 1.11 µM [1, 5]: 5.4%
activation at 1.11 µM ([1]; read-out: Peak width - 2D Mean): 26.6%
activation at 1.11 µM [1, 6]: 3.4%
activation at 3.33 µM [1, 4]: 25.5%
activation at 3.33 µM ([1]; read-out: Peak Number—2D Mean): -12%
activation at 3.33 µM [1, 5]: 3.7%
activation at 3.33 µM ([1]; read-out: Peak width - 2D Mean): 29.2%
activation at 3.33 µM [1, 6]: 19.7%
activation at 10 µM [1, 4]: 39.3%
activation at 10 µM ([1]; read-out: Peak Number—2D Mean): 6%
activation at 10 µM [1, 5]: 4.7%
activation at 10 µM ([1]; read-out: Peak width - 2D Mean): 46.5%
activation at 10 µM [1, 6]: 41.8%
Area under the curve - 3D Mean ([2]; 0.37 µM): 137.5 % change from baseline
Peak Number—3D Mean ([2]; 0.37 µM): 1.3 % change from baseline
Peak amplitude - 3D Mean ([2]; 0.37 µM): 126.7 % change from baseline
Peak width - 3D Mean ([2]; 0.37 µM): 0.0 % change from baseline
Peak-to-peak interval - 3D Mean ([2]; 0.37 µM): 4.1 % change from baseline
Area under the curve - 3D Mean ([2]; 1.11 µM): 159.9 % change from baseline
Peak Number—3D Mean ([2]; 1.11 µM): −8.4 % change from baseline
Peak amplitude - 3D Mean ([2]; 1.11 µM): 134.2 % change from baseline
Peak width - 3D Mean ([2]; 1.11 µM): 9.4 % change from baseline
Peak-to-peak interval - 3D Mean ([2]; 1.11 µM): 15.3 % change from baseline
Area under the curve - 3D Mean ([2]; 3.33 µM): 154.1 % change from baseline
Peak Number—3D Mean ([2]; 3.33 µM): −2.2 % change from baseline
Peak amplitude - 3D Mean ([2]; 3.33 µM): 128.1 % change from baseline
Peak width - 3D Mean ([2]; 3.33 µM): 9.0 % change from baseline
Peak-to-peak interval - 3D Mean ([2]; 3.33 µM): 7.8 % change from baseline
Area under the curve - 3D Mean ([2]; 10 µM): 119.7 % change from baseline
Peak Number—3D Mean ([2]; 10 µM): 12.5 % change from baseline
Peak amplitude - 3D Mean ([2]; 10 µM): 118.0 % change from baseline
Peak width - 3D Mean ([2]; 10 µM): −1.4 % change from baseline
Peak-to-peak interval - 3D Mean ([2]; 10 µM): −3.5 % change from baseline
effect on kainic-acid-induced seizures in vitro [3]: attenuate
